Test results taken from patent US10694746B2, “Fungicidal composition” (JIANGSU HUIFENG BIO AGRICULTURE CO., LTD., priority 2016, dated 2020).
In brackets after ≈: the same amount, converted by molar mass.

Legend:
Assay type in all cases: in vivo
[1] = tested on: apple anthracnose; test: Toxicity test of BBIT combined with mancozeb on apple anthracnose (bioassay); conditions: for ATI (actual toxicity index): (EC50 of standard/EC50 of test agent)*100, standard BBIT; for EC50: apple anthracnose
[2] = tested on: cucumber downy mildew; test: Toxicity test of BIT combined with mancozeb on cucumber downy mildew (bioassay); conditions: for ATI (actual toxicity index): (EC50 of standard/EC50 of test agent)*100, standard BIT; for EC50: cucumber downy mildew
[3] = tested on: potato late blight; conditions: for ATI (actual toxicity index): (EC50 of standard/EC50 of test agent)*100, standard MBIT; for EC50: potato late blight

| Molecule | ATI (actual toxicity index) [1] | EC50 [1] [µg/mL] | ATI (actual toxicity index) [2] | EC50 [2] [µg/mL] | ATI (actual toxicity index) [3] | EC50 [3] [µg/mL] |
| --- | --- | --- | --- | --- | --- | --- |
| CCCCn1sc2ccccc2c1=O [BBIT, 2-n-butyl-1,2-benzisothiazolin-3-one] | 100 | 19.09 |  |  |  |  |
| O=c1[nH]sc2ccccc12 [BIT, 1,2-benzisothiazolin-3-one] |  |  | 100.00 | 13.5 |  |  |
| Cn1sc2ccccc2c1=O [MBIT, 2-methyl-1,2-benzisothiazolin-3-one] |  |  |  |  | 100.00 | 14.81 (≈ 89.6 µM) |
| mancozeb | 20.67 | 92.36 | 17.96 | 75.17 | 21.69 | 68.27 |
